The record followed here is patent US12098216B2, “Modulators of programmed death-ligand-1 and/or programmed death-ligand-2” (Southern Research Institute, priority 2020, dated 2024).

Square brackets hold non-standard residues; d marks the D form. Peptide text beside a SMILES is read from it. * marks the point of attachment. dPhe(4-CH2NH2) = NCc1ccc(C[C@@H](N)C(=O)O)cc1; dOrn = NCCC[C@@H](N)C(=O)O; Orn = NCCC[C@H](N)C(=O)O; Ac5c = NC1(C(=O)O)CCCC1; PhAc = O=C(Cc1ccccc1)*; Ac3c = NC1(C(=O)O)CC1; Aib = CC(C)(N)C(=O)O

The subject of assay [1] is PDL-1 and/or PDL-2 signaling. Put plainly: Luciferase assay of dipeptides, Table 1. Format: cell-based.
The target of assay [2] is PD-1. Put plainly: Binding affinity (KD) of dipeptides, Table 1.

Broadly, the EC50 is the midpoint of the concentration-response curve. `CC(C)(NC(=O)[C@@H](CCCN)NC(=O)Cc1ccccc1)C(N)=O` [Compound 1, (R)-5-amino-N-(1-amino-2-methyl-1-oxopropan-2-yl)-2-(2-phenylacetamido)pentanamide] (PhAc-[dOrn]-[Aib]-NH2) registered a half-maximal effective concentration (EC50) in assay [1] of 18 µM. With `CC(C)(NC(=O)[C@H](CCCN)NC(=O)Cc1ccccc1)C(N)=O` [Compound 2] (PhAc-[Orn]-[Aib]-NH2), a half-maximal effect in assay [1] (EC50) was put at 7.9 µM. The same measure, in the same setting: the value for `CC(C)(NC(=O)[C@@H](CCCN)NC(=O)Cc1ccc(C(F)(F)F)cc1)C(N)=O` [Compound 3] was 0.01 µM; that for `CC(C)(NC(=O)[C@@H](CCCN)NC(=O)Cc1ccc(F)cc1)C(N)=O` [Compound 4] was 0.47 µM; that for `COc1ccc(CC(=O)N[C@H](CCCN)C(=O)NC(C)(C)C(N)=O)cc1` [Compound 5] was 0.32 µM. Same read-out and setting: the value for `CC(C)(NC(=O)[C@@H](CCCN)NC(=O)Cc1ccc(OC(F)(F)F)cc1)C(N)=O` [Compound 6] was 0.09 µM. On the same count and under the same terms, the value for `NCCC[C@@H](NC(=O)Cc1ccccc1)C(=O)NC1(C(N)=O)CCCC1` [Compound 7] (PhAc-[dOrn]-[Ac5c]-NH2) was 0.28 µM. Regarding `CC(C)(NC(=O)[C@@H](CCCCN)NC(=O)Cc1ccccc1)C(N)=O` [Compound 8] (PhAc-[dK]-[Aib]-NH2), the EC50 in assay [1] was 1.37 µM. The same measure, in the same setting: then `CC(C)(NC(=O)[C@@H](CCCN)NC(=O)Cc1ccccc1F)C(N)=O` [Compound 9], with 0.05 µM.

For `Cc1ccc(CC(=O)N[C@H](CCCN)C(=O)NC(C)(C)C(N)=O)cc1` [Compound 10], the “EC50 (μM) Luciferase” value in assay [1] is “Inactive”. In turn, `CC(C)(NC(=O)[C@@H](CCCN)NC(=O)Cc1cccc(F)c1)C(N)=O` [Compound 11] came in with a concentration giving a half-maximal response (EC50) in assay [1] of 1.28 µM. Consider `CC(C)(NC(=O)[C@@H](CCCN)NC(=O)C(C)(C)c1ccccc1)C(N)=O` [Compound 12], for which the “EC50 (μM) Luciferase” value in assay [1] is “Inactive”. In assay [1], `Cn1cc(C(=O)N[C@H](CCCN)C(=O)NC(C)(C)C(N)=O)c2ccccc21` [Compound 13] registered an EC50 of 1.28 µM. For `NCCC[C@@H](NC(=O)Cc1ccccc1)C(=O)NC1(C(N)=O)CC1` [Compound 14] (PhAc-[dOrn]-[Ac3c]-NH2), it took 0.11 µM to reach a half-maximal effect in assay [1] (EC50). The same measure, in the same setting: the value for `NCCC[C@@H](NC(=O)Cc1ccc(F)cc1)C(=O)NC1(C(N)=O)CC1` [Compound 15] was 3.32 µM. Take `CC(C)(NC(=O)[C@@H](CCCN)NC(=O)Cc1ccc(Cl)cc1)C(N)=O` [Compound 17]: in assay [1], a half-maximal effect (EC50) was put at 10.3 µM. In assay [2], the KD result was “No Binding”.

In turn, `CC(C)(NC(=O)[C@@H](CCCN)NC(=O)C1(c2ccccc2)CC1)C(N)=O` [Compound 22] yielded an EC50 in assay [1] of 2.05 µM.

Turning to `CC(C)(NC(=O)[C@@H](Cc1ccc(CN)cc1)NC(=O)Cc1ccccc1)C(N)=O` [Compound 23] (PhAc-[dPhe(4-CH2NH2)]-[Aib]-NH2), the EC50 in assay [1] is 17.7 µM. In assay [2], the KD result is listed as “No Binding”.

As for `CC(C)(NC(=O)[C@@H](Cc1ccc(CN)cc1)NC(=O)Cc1ccc(F)cc1)C(N)=O` [Compound 24], in assay [1], the response was half-maximal at 0.714 µM (EC50). The same measure, in the same setting: then `CC(C)(NC(=O)[C@@H](CCCN)NC(=O)C1(c2ccc(F)cc2)CC1)C(N)=O` [Compound 25], with 5.03 µM; and `CC(C)(NC(=O)[C@@H](CCCN)NC(=O)C(C)(C)c1ccc(F)cc1)C(N)=O` [Compound 26], with 3.79 µM; and `CC(C)(NC(=O)[C@@H](CCCN)NC(=O)Cc1ccc(F)cc1Cl)C(N)=O` [Compound 27], with 10.2 µM.

Take `CC(C)(NC(=O)[C@@H](CCCN)NC(=O)Cc1ccc(F)c(F)c1)C(N)=O` [Compound 28]: the EC50 in assay [1] is 2 µM. Still for that read-out and setting: then `CC(C)(NC(=O)[C@@H](CCCN)NC(=O)Cc1ccc(F)cc1F)C(N)=O` [Compound 29], with 2.58 µM. Turning to `CC(C)(NC(=O)[C@@H](CCCN)NC(=O)Cc1cc(F)cc(F)c1)C(N)=O` [Compound 30], the EC50 in assay [1] came out at 2.1 µM. In assay [1], `CC(C)(NC(=O)[C@@H](CCCN)NC(=O)Cc1c(F)cccc1F)C(N)=O` [Compound 31] came in with an EC50 of 0.596 µM. The molecule `CC(C)(NC(=O)[C@@H](CCCN)NC(=O)Cc1cc(F)c(F)c(F)c1)C(N)=O` [Compound 32] yielded an EC50 in assay [1] of 28.3 µM. The KD result in assay [2] is listed as “No Binding”. On to `CC(C)(NC(=O)[C@@H](CCCN)NC(=O)Cc1c(F)cc(F)cc1F)C(N)=O` [Compound 33], for which the EC50 in assay [1] is 0.06 µM.

In turn, `CC(C)(NC(=O)[C@@H](CCCN)NC(=O)Cc1ccncc1)C(N)=O` [Compound 34] gave a concentration for a half-maximal effect (EC50) in assay [1] of 3.48 µM. The same measure, in the same setting: then `Cc1c[nH]c(=O)c(NC(=O)[C@@H](CCCN)NC(=O)Cc2ccc(F)cc2)c1` [Compound 35], with 0.59 µM. `Cc1c[nH]c(=O)c(NC(=O)[C@@H](CCCN)NC(=O)Cc2ccccc2)c1` [Compound 36] yielded a half-maximal effective concentration (EC50) in assay [1] of 1.69 µM. The KD result in assay [2] is on record as “No Binding”. For the molecule `CN(C)CCC[C@@H](NC(=O)Cc1ccc(F)cc1)C(=O)NC(C)(C)C(N)=O` [Compound 37], in assay [1], the midpoint of the response, the EC50, lay at 23.8 µM. On the same count and under the same terms, then `CC(C)(NC(=O)[C@@H](CCCN)NC(=O)Cc1nc2ccccc2o1)C(N)=O` [Compound 38], with 19.2 µM; and `CCCC[C@@H](NC(=O)Cc1ccc(F)cc1)C(=O)NC(C)(C)C(N)=O` [Compound 39], with 10.3 µM. Still for that read-out and setting: then `CC(C)(NC(=O)[C@@H](CCCN)NC(=O)Cc1nc2ccccc2s1)C(N)=O` [Compound 40], with 0.07 µM. Still for that read-out and setting: the value for `CC(C)(NC(=O)[C@H](CCCN)NC(=O)Cc1ccc(C(F)(F)F)cc1)C(N)=O` [Compound 42] was 12.1 µM.
